Legend:
[1] = test system: Glomerella lagenarium (Colletotrichum lagenarium); experiment: Glomerella lagenarium liquid culture growth inhibition; type: cell-based; details: Colletotrichum orbiculare, photometric, 3-4 days after application, read-out: control on Glomerella lagenarium
Protocol: (§1) Conidia of the fungus from cryogenic storage are directly mixed into nutrient broth (PDB potato dextrose broth). After placing a (DMSO) solution of test compound into a microtiter plate (96-well format), the nutrient broth containing the fungal spores is added.

[2] = test system: Thanatephorus cucumeris (Rhizoctonia solani); experiment: Thanatephorus cucumeris liquid culture growth inhibition; type: cell-based; details: photometric, 3-4 days after application, read-out: control on Thanatephorus cucumeris
Protocol: Mycelia fragments of a newly grown liquid culture of the fungus are directly mixed into nutrient broth (PDB potato dextrose broth). After placing a (DMSO) solution of the test compounds into a microtiter plate (96-well format), the nutrient broth containing the fungal material is added. The test plates are incubated at 24° C. and the inhibition of growth is determined photometrically 3-4 days after application.

[3] = test system: Monographella nivalis (Microdochium nivale); experiment: Monographella nivalis liquid culture growth inhibition; type: cell-based; details: photometric, 4-5 days after application, read-out: control on Monographella nivalis
Protocol: (§2) Conidia of the fungus from cryogenic storage are directly mixed into nutrient broth (PDB potato dextrose broth). After placing a (DMSO) solution of test compound into a microtiter plate (96-well format), the nutrient broth containing the fungal spores is added. The test plates are incubated at 24° C. and the inhibition of growth is determined photometrically 4-5 days after application.

Pythium ultimum [4] = experiment: Example B-5: seed treatment against Pythium ultimum on cotton; type: in vivo; details: Globisporangium ultimum, rate of 200 g/100 kg seeds, infested soil, number of germinated, healthy plants
Protocol: The trial is kept for 1 week in a growth room at 20° C. and darkness. After this period the trial is transferred to a greenhouse where a temperature of 21° C. and a 14 h light period is provided until the trial is finished. The following assessments are made: number of germinated, healthy plants. Each number is determined for 150 seeds per treatment (3 replicates a 50 seeds).

[5] = test system: Mycosphaerella arachidis (Cercospora arachidicola); experiment: Mycosphaerella arachidis liquid culture growth inhibition; type: cell-based; details: photometric, 4-5 days after application, read-out: control on Mycosphaerella arachidis
Protocol: as §1

Pythium ultimum [6] = experiment: Pythium ultimum on Cotton/Pouch; type: in vivo; details: Globisporangium ultimum, 168 h, cotton, pouch, 7 days at 17° C.
Description: A spore/mycelium suspension is pipetted into the pouch simultaneously.

Pythium ultimum [7] = experiment: Pythium ultimum liquid culture growth inhibition; type: cell-based; details: Globisporangium ultimum, photometric, 2-3 days after application, read-out: control on Pythium ultimum
Protocol: as §1, with “Mycelia fragments and oospores of a newly grown liquid culture” for “Conidia”, “fungus” for “fungus from cryogenic storage”, “mycelia/spore mixture” for “spores”

Alternaria solani = Alternaria solani on tomato plants; type: in vivo; details: 4-week old tomato plants cv. Roter Gnom, spray, inoculated two days after application
Protocol: 4-week old tomato plants cv. Roter Gnom are sprayed in a spray chamber with the formulated test compound diluted in water. The test plants are inoculated by spraying them with a spore suspension two days after application. The inoculated test plants are incubated at 22/18° C. (day/night) and 95% rh in a greenhouse and the percentage leaf area covered by disease is assessed when an appropriate level of disease appears on untreated check plants (5-7 days after application).

Fusarium culmorum = Fusarium culmorum liquid culture growth inhibition; type: cell-based; details: photometric, 3-4 days after application, read-out: control on Fusarium culmorum
Protocol: as §2, with “3-4” for “4-5”

[8] = test system: Botryotinia fuckeliana (Botrytis cinerea); experiment: Botryotinia fuckeliana liquid culture growth inhibition; type: cell-based; details: photometric, 3-4 days after application, read-out: control on Botryotinia fuckeliana
Protocol: Conidia of the fungus from cryogenic storage are directly mixed into nutrient broth (Vogels broth). After placing a (DMSO) solution of test compound into a microtiter plate (96-well format), the nutrient broth containing the fungal spores is added.

Row | SMILES | inhibition of growth at 200 ppm [1] | inhibition of growth at 200 ppm [2] | inhibition of growth at 200 ppm [3] | pest or weed control at 200 g/100 kg seeds (Pythium ultimum [4]) | inhibition of growth at 200 ppm [5] | pest or weed control at 20 ppm (Pythium ultimum [6]) | inhibition of growth at 200 ppm (Pythium ultimum [7]) | pest or weed control at 60 ppm (Alternaria solani) | inhibition of growth at 200 ppm (Fusarium culmorum) | inhibition of growth at 200 ppm [8]
1 | OB1OCc2cc(Cl)ccc21 [Compound 1, 5-Chloro-3H-benzo[c][1,2]oxaborol-1-ol] | ≥ 80% | ≥ 80% | ≥ 80% | ≥ 50% | ≥ 80% | ≥ 50% | ≥ 80% | ≥ 60% | ≥ 80% | ≥ 80%
2 | NCC(OB1OCc2cc(Cl)ccc21)c1ccccc1 (stereo not drawn) [Compound 3, 2-(5-Chloro-3H-benzo[c][1,2]oxaborol-1-yloxy)-2-phenyl-ethylamine] | ≥ 80% | – | ≥ 80% | – | ≥ 80% | – | ≥ 80% | ≥ 60% | ≥ 80% | ≥ 80%
3 | CNCCOB1OCc2cc(Cl)ccc21 [Compound 4, [2-(5-Chloro-3H-benzo[c][1,2]oxaborol-1-yloxy)-ethyl]-methyl-amine] | ≥ 80% | ≥ 80% | ≥ 80% | – | ≥ 80% | ≥ 50% | ≥ 80% | – | ≥ 80% | ≥ 80%
4 | NCC(=O)OB1OCc2cc(Cl)ccc21 [Compound 9, Amino-acetic acid 5-chloro-3H-benzo[c][1,2]oxaborol-1-yl ester] | ≥ 80% | – | ≥ 80% | – | ≥ 80% | ≥ 50% | ≥ 80% | – | ≥ 80% | ≥ 80%
5 | NCCCCOB1OCc2cc(Cl)ccc21 [Compound 10, 4-(5-Chloro-3H-benzo[c][1,2]oxaborol-1-yloxy)-butylamine] | ≥ 80% | ≥ 80% | ≥ 80% | ≥ 50% | ≥ 80% | – | ≥ 80% | – | ≥ 80% | ≥ 80%
6 | OB1OCc2ccccc21 [Compound 11, 3H-Benzo[c][1,2]oxaborol-1-ol] | ≥ 80% | – | – | ≥ 50% | ≥ 80% | – | ≥ 80% | – | ≥ 80% | ≥ 80%
7 | NCCCOB1OCc2cc(F)ccc21 [Compound 12, 3-(5-Fluoro-3H-benzo[c][1,2]oxaborol-1-yloxy)-propylamine] | ≥ 80% | ≥ 80% | ≥ 80% | ≥ 50% | ≥ 80% | ≥ 50% | ≥ 80% | – | ≥ 80% | ≥ 80%
8 | NCCCCOB1OCc2cc(F)ccc21 [Compound 13, 4-(5-Fluoro-3H-benzo[c][1,2]oxaborol-1-yloxy)-butylamine] | ≥ 80% | ≥ 80% | ≥ 80% | ≥ 50% | ≥ 80% | – | ≥ 80% | – | ≥ 80% | ≥ 80%
9 | OB1OCc2cc3ccccc3cc21 [Compound 15, 3H-2-Oxa-1-bora-cyclopenta[b]naphthalen-1-ol] | ≥ 80% | – | ≥ 80% | – | ≥ 80% | – | ≥ 80% | ≥ 60% | ≥ 80% | ≥ 80%
10 | NCCOB1OCc2c1ccc1ccccc21 [Compound 18, 2-(1H-2-Oxa-3-bora-cyclopenta[a]naphthalen-3-yloxy)-ethylamine] | ≥ 80% | – | ≥ 80% | – | ≥ 80% | – | ≥ 80% | ≥ 60% | ≥ 80% | –
11 | Clc1ccc2c(c1)COB2Oc1cccc2cccnc12 [Compound 22, 8-(5-Chloro-3H-benzo[c][1,2]oxaborol-1-yloxy)-quinoline] | ≥ 80% | ≥ 80% | ≥ 80% | – | ≥ 80% | – | ≥ 80% | – | ≥ 80% | ≥ 80%
12 | Clc1ccc2c(c1)COB2OC[C@@H]1CCCN1 [Compound 24, (S)-2-(5-Chloro-3H-benzo[c][1,2]oxaborol-1-yloxymethyl)-pyrrolidine] | ≥ 80% | ≥ 80% | ≥ 80% | – | ≥ 80% | – | ≥ 80% | – | ≥ 80% | ≥ 80%
13 | CCC(CN)OB1OCc2cc(Cl)ccc21 (stereo not drawn) [Compound 26, 2-(5-Chloro-3H-benzo[c][1,2]oxaborol-1-yloxy)-butylamine] | ≥ 80% | ≥ 80% | ≥ 80% | ≥ 50% | ≥ 80% | – | ≥ 80% | – | ≥ 80% | ≥ 80%
14 | CC(CN)OB1OCc2cc(Cl)ccc21 (stereo not drawn) [Compound 27, 2-(5-Chloro-3H-benzo[c][1,2]oxaborol-1-yloxy)-propylamine] | ≥ 80% | ≥ 80% | ≥ 80% | – | ≥ 80% | – | ≥ 80% | ≥ 60% | ≥ 80% | ≥ 80%
15 | CC(N)COB1OCc2cc(Cl)ccc21 (stereo not drawn) [Compound 28, 2-(5-Chloro-3H-benzo[c][1,2]oxaborol-1-yloxy)-1-methyl-ethylamine] | ≥ 80% | ≥ 80% | ≥ 80% | – | ≥ 80% | – | ≥ 80% | ≥ 60% | ≥ 80% | ≥ 80%
16 | CCC(N)COB1OCc2cc(F)ccc21 (stereo not drawn) [Compound 30, 1-(5-Fluoro-3H-benzo[c][1,2]oxaborol-1-yloxymethyl)-propylamine] | ≥ 80% | ≥ 80% | ≥ 80% | ≥ 50% | ≥ 80% | – | ≥ 80% | – | ≥ 80% | ≥ 80%
17 | NCCOB1OCc2cc(Cl)ccc21 [Compound 36, 2-(5-Chloro-3H-benzo[c][1,2]oxaborol-1-yloxy)-ethylamine] | ≥ 80% | ≥ 80% | ≥ 80% | – | ≥ 80% | – | ≥ 80% | – | ≥ 80% | ≥ 80%
